# According to patent US20230074545A1, “TREATMENT OF CANCER WITH CDK12/13 INHIBITORS” (Kinnate Biopharma Inc., priority 2019, published 2023):
# What was measured:
# Assay in all cases: Radiometric kinase panel
# Type in all cases: biochemical
# CDK20/CycH = biological target: T1, CDK20/CycH (Homo sapiens, UniProt Q8IZL9)
# T1 construct: purchased ProQinase GmbH (Reaction Biology)
# Method in brief: (§1)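 Activity was measured radiometrically from [gamma-33P]-ATP incorporation into substrate. The kinases were recombinant human GST- or His-tagged proteins, full-length or active fragments, expressed in Sf9 or E. coli. Compound in 10% DMSO was added before the enzyme/substrate mix, which started the reaction.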
# TGFBR2 = biological target: T2, TGFBR2 (Homo sapiens, UniProt P37173)
# T2 construct: either as full-length or enzymatically active fragments; purchased ProQinase GmbH (Reaction Biology)
# Method in brief: as §1
# AuroraB = biological target: T3, AuroraB (Homo sapiens, UniProt Q96GD4)
# T3 construct: purchased ProQinase GmbH (Reaction Biology); host or cells: Sf9 insect cells or E. coli (not specified per kinase)
# Method in brief: as §1
# CAMK2D = biological target: T4, CAMK2D (Homo sapiens, UniProt Q13557)
# T4 construct: purchased ProQinase GmbH (Reaction Biology)
# Method in brief: as §1
# PRKD2 = biological target: T5, PRKD2 (Homo sapiens, UniProt Q9BZL6)
# T5 construct: either as full-length or enzymatically active fragments; purchased ProQinase GmbH (Reaction Biology); host or cells: Sf9 insect cells or E. coli
# Method in brief: as §1
# ACK1 = biological target: T6, ACK1 (Homo sapiens, UniProt Q07912)
# T6 construct: either as full-length or enzymatically active fragments; purchased ProQinase GmbH (Reaction Biology)
# Method in brief: as §1
# CAMKK1 = biological target: T7, CAMKK1 (Homo sapiens, UniProt Q8N5S9)
# T7 construct: either as full-length or enzymatically active fragments; purchased ProQinase GmbH (Reaction Biology)
# Method in brief: as §1
# PKCeta = biological target: T8, PKCeta (Homo sapiens, UniProt P24723)
# T8 construct: either as full-length or enzymatically active fragments; purchased ProQinase GmbH (Reaction Biology); host or cells: Sf9 insect cells or E. coli
# Method in brief: as §1
# MKNK2 = biological target: T9, MKNK2 (Homo sapiens, UniProt Q9HBH9)
# T9 construct: either as full-length or enzymatically active fragments; purchased ProQinase GmbH (Reaction Biology)
# Method in brief: as §1
# RAF1 YDYD = biological target: T10, RAF1 YDYD (Homo sapiens, UniProt P04049, Y340D/Y341D)
# T10 construct: either as full-length or enzymatically active fragments; purchased ProQinase GmbH (Reaction Biology); host or cells: Sf9 insect cells or E. coli (not specified per kinase)
# Method in brief: as §1
# CDK6/CycD2 = biological target: T11, CDK6/CycD2 (Homo sapiens, UniProt Q00534)
# T11 construct: either as full-length or enzymatically active fragments; purchased ProQinase GmbH (Reaction Biology)
# Method in brief: as §1
# GSG2 = biological target: T12, GSG2 (Homo sapiens, UniProt Q8TF76)
# T12 construct: either as full-length or enzymatically active fragments; purchased ProQinase GmbH (Reaction Biology); host or cells: Sf9 insect cells or E. coli
# Method in brief: as §1
# CK1delta = biological target: T13, CK1delta (Homo sapiens, UniProt P48730)
# T13 construct: either as full-length or enzymatically active fragments; purchased ProQinase GmbH (Reaction Biology)
# Method in brief: as §1
# PASK = biological target: T14, PASK (Homo sapiens, UniProt Q96RG2)
# T14 construct: either as full-length or enzymatically active fragments; purchased ProQinase GmbH (Reaction Biology)
# Method in brief: as §1
# MST3 = biological target: T15, MST3 (Homo sapiens, UniProt Q9Y6E0)
# T15 construct: either as full-length or enzymatically active fragments; purchased ProQinase GmbH (Reaction Biology)
# Method in brief: as §1
# NEK1 = biological target: T16, NEK1 (Homo sapiens, UniProt Q96PY6)
# T16 construct: purchased ProQinase GmbH (Reaction Biology)
# Method in brief: as §1
# PAK3 = biological target: T17, PAK3 (Homo sapiens, UniProt O75914)
# T17 construct: purchased ProQinase GmbH (Reaction Biology); host or cells: Sf9 insect cells or E. coli (not specified per kinase)
# Method in brief: as §1
# GRK4 = biological target: T18, GRK4 (Homo sapiens, UniProt P32298)
# T18 construct: either as full-length or enzymatically active fragments; purchased ProQinase GmbH (Reaction Biology)
# Method in brief: as §1
# SGK3 = biological target: T19, SGK3 (Homo sapiens, UniProt Q96BR1)
# T19 construct: either as full-length or enzymatically active fragments; purchased ProQinase GmbH (Reaction Biology)
# Method in brief: as §1
# NEK11 = biological target: T20, NEK11 (Homo sapiens, UniProt Q8NG66)
# T20 construct: either as full-length or enzymatically active fragments; purchased ProQinase GmbH (Reaction Biology)
# Method in brief: as §1
# CK2alpha2 = biological target: T21, CK2alpha2 (Homo sapiens, UniProt P19784)
# T21 construct: either as full-length or enzymatically active fragments; purchased ProQinase GmbH (Reaction Biology)
# Method in brief: as §1
# INSR = biological target: T22, INSR (Homo sapiens, UniProt P06213)
# T22 construct: either as full-length or enzymatically active fragments; purchased ProQinase GmbH (Reaction Biology); host or cells: Sf9 insect cells or E. coli (not specified per kinase)
# Method in brief: as §1
# PKCbeta2 = biological target: T23, PKCbeta2 (Homo sapiens, UniProt P05771)
# T23 construct: either as full-length or enzymatically active fragments; purchased ProQinase GmbH (Reaction Biology)
# Method in brief: as §1
# CK1gamma3 = biological target: T24, CK1gamma3 (Homo sapiens, UniProt Q9Y6M4)
# T24 construct: either as full-length or enzymatically active fragments; purchased ProQinase GmbH (Reaction Biology)
# Method in brief: as §1
# PIM1 = biological target: T25, PIM1 (Homo sapiens, UniProt P11309)
# T25 construct: either as full-length or enzymatically active fragments; purchased ProQinase GmbH (Reaction Biology)
# Method in brief: as §1
# CHK1 = biological target: T26, CHK1 (Homo sapiens, UniProt O14757)
# T26 construct: either as full-length or enzymatically active fragments; purchased ProQinase GmbH (Reaction Biology)
# Method in brief: as §1
# MYLK3 = biological target: T27, MYLK3 (Homo sapiens, UniProt Q32MK0)
# T27 construct: either as full-length or enzymatically active fragments; purchased ProQinase GmbH (Reaction Biology)
# Method in brief: as §1
# SNARK = biological target: T28, SNARK (Homo sapiens, UniProt Q9H093)
# T28 construct: purchased ProQinase GmbH (Reaction Biology)
# Method in brief: as §1
# VRK2 = biological target: T29, VRK2 (Homo sapiens, UniProt Q86Y07)
# T29 construct: either as full-length or enzymatically active fragments; purchased ProQinase GmbH (Reaction Biology); host or cells: Sf9 insect cells or E. coli
# Method in brief: as §1
# SRMS = biological target: T30, SRMS (Homo sapiens, UniProt Q9H3Y6)
# T30 construct: purchased ProQinase GmbH (Reaction Biology)
# Method in brief: as §1
# T10 sequence (P04049 307-648 Y340D/Y341D limits assumed): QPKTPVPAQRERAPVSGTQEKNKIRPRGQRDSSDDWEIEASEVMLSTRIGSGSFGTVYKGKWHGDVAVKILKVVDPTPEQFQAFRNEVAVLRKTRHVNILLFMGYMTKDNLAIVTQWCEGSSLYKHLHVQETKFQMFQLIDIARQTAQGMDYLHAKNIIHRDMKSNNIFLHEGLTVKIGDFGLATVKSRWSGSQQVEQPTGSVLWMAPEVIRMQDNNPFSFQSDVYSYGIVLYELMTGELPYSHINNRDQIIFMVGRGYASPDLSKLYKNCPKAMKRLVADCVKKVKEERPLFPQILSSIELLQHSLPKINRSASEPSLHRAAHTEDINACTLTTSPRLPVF
# T29 sequence (Q86Y07 whole entry, the tested form may be a part): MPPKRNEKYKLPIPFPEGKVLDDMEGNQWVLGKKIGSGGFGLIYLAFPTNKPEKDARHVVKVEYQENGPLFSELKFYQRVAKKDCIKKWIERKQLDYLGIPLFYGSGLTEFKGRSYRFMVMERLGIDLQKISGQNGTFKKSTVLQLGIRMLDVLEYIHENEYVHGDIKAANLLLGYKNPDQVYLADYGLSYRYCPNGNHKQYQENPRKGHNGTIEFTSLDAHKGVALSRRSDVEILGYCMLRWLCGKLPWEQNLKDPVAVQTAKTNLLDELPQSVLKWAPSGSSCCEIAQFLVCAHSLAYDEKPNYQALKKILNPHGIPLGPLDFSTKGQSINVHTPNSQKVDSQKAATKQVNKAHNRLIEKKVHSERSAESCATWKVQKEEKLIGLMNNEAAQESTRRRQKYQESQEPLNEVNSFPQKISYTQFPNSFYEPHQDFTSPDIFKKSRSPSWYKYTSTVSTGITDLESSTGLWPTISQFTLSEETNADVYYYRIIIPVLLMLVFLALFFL
# T9 sequence (Q9HBH9 whole entry, the tested form may be a part): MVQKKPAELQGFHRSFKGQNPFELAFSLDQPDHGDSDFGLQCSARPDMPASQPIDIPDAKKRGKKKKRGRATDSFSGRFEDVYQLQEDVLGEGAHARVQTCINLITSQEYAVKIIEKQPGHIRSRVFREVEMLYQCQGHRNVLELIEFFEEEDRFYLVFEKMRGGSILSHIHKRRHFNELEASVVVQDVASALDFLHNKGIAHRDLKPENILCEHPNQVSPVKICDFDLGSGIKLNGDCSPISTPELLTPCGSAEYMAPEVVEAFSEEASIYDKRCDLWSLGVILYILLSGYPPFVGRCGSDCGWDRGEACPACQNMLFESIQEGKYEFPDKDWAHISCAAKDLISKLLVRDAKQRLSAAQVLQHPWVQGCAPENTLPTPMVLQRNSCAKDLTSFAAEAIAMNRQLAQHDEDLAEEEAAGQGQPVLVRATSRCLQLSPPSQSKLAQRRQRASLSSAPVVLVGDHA
# T6 sequence (Q07912 whole entry, the tested form may be a part): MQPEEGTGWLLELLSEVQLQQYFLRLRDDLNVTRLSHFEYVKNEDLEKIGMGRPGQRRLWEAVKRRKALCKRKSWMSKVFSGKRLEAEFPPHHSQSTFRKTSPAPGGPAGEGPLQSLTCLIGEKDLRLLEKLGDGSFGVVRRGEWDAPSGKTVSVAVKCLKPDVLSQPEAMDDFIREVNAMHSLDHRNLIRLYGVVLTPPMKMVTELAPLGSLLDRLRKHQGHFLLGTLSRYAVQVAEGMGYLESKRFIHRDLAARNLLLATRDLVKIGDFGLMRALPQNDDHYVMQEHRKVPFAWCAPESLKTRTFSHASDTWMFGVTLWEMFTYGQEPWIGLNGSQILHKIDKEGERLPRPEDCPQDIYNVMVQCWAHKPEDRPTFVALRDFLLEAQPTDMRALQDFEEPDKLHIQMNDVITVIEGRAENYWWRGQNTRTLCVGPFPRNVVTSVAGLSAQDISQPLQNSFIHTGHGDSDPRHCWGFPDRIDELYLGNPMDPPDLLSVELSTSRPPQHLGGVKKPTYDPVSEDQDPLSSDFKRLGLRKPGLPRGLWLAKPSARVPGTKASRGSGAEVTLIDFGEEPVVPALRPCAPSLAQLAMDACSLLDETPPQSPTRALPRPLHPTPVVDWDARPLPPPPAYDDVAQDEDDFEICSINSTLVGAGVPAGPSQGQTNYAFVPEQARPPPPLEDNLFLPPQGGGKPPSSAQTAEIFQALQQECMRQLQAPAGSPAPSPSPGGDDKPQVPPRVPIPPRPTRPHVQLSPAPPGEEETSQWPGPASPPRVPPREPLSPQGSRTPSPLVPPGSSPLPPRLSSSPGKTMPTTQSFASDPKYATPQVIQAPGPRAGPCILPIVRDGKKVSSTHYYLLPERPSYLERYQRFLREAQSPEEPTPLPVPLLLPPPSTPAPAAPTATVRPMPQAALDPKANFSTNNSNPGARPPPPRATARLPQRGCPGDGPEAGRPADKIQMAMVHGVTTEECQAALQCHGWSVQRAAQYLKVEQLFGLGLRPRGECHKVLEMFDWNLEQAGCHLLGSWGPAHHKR
# T8 sequence (P24723 whole entry, the tested form may be a part): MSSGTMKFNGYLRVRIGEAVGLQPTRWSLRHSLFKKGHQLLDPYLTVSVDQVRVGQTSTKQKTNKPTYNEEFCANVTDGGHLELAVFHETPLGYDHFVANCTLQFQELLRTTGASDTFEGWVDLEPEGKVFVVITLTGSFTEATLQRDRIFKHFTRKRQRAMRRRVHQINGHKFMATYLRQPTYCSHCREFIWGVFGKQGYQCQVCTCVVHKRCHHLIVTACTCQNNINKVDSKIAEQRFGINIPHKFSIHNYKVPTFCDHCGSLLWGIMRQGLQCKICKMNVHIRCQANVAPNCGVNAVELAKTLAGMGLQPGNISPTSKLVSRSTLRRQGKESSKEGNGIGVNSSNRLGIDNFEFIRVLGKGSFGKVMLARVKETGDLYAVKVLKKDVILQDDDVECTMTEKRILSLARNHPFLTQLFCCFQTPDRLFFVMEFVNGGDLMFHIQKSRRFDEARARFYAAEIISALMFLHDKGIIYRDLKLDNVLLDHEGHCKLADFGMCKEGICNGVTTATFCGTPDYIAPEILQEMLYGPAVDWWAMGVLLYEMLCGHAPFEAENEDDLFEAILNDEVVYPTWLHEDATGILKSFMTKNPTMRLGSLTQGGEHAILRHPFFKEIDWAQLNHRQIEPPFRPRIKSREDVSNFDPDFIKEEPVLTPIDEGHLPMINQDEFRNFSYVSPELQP
# T13 sequence (P48730 whole entry, the tested form may be a part): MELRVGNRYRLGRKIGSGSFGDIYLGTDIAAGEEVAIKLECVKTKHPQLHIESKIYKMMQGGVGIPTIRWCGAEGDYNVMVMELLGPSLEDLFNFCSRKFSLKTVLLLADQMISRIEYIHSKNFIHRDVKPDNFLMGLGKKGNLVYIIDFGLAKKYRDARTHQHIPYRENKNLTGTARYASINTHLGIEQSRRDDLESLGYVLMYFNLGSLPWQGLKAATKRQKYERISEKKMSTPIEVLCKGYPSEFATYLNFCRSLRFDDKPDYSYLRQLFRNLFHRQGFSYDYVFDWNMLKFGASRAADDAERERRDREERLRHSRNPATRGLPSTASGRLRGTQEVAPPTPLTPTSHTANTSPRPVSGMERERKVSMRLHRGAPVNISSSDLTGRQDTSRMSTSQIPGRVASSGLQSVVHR
# T21 sequence (P19784 whole entry, the tested form may be a part): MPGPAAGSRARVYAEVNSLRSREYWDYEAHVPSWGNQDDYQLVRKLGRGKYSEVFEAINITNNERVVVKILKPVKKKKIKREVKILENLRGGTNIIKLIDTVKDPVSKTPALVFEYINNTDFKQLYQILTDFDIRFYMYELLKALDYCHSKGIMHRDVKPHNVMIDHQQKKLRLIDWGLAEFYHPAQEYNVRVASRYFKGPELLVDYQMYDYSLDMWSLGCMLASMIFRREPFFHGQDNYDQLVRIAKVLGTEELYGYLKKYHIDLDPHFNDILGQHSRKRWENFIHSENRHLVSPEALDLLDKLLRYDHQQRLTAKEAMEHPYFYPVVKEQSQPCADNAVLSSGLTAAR
# T18 sequence (P32298 whole entry, the tested form may be a part): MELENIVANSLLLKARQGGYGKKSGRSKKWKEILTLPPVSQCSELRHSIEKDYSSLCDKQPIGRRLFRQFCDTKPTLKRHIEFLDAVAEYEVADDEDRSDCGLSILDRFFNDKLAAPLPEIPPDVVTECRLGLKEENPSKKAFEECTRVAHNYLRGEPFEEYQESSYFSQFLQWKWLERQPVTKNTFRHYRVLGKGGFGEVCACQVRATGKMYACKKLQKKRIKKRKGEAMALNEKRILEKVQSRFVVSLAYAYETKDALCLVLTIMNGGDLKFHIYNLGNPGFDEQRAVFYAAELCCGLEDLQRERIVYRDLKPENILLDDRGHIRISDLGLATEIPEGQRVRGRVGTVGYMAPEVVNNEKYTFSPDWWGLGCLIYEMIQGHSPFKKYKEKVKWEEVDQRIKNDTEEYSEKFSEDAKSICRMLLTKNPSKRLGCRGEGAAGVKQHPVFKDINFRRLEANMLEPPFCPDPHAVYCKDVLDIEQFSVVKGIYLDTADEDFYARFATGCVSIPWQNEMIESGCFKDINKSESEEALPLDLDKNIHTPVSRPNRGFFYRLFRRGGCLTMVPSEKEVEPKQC
# T17 sequence (O75914 whole entry): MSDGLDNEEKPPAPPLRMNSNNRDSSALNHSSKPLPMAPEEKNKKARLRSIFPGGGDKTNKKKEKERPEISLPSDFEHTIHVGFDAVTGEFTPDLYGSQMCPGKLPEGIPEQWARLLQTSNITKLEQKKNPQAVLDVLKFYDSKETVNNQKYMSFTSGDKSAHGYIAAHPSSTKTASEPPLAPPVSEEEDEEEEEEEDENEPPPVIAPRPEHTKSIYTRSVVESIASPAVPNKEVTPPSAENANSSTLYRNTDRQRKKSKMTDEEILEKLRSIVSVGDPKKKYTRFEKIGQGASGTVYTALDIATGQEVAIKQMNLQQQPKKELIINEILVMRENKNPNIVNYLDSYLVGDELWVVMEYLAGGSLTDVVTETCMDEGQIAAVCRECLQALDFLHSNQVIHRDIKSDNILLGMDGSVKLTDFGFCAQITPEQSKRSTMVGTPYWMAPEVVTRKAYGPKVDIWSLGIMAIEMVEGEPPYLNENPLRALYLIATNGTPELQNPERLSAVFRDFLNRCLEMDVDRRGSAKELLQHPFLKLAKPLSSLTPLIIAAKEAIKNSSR
structure (smiles),measurement,setting,value
"C=CC(=O)Nc1ccc(C(=O)N2CC[C@@H](Nc3ncc(C#N)cn3)C2)cc1 [Compound 4, (R)-N-(4-(3-((5-cyanopyrimidin-2-yl)amino)pyrrolidine-1-carbonyl)phenyl)acrylamide]",inhibition at 1 µM,CDK20/CycH,-2%
same,inhibition at 1 µM,TGFBR2,22%
same,inhibition at 1 µM,AuroraB,1%
same,inhibition at 1 µM,CAMK2D,0%
same,inhibition at 1 µM,PRKD2,12%
same,inhibition at 1 µM,ACK1,6%
same,inhibition at 1 µM,CAMKK1,3%
same,inhibition at 1 µM,PKCeta,-14%
same,inhibition at 1 µM,MKNK2,4%
same,inhibition at 1 µM,RAF1 YDYD,9%
same,inhibition at 1 µM,CDK6/CycD2,-14%
same,inhibition at 1 µM,GSG2,13%
same,inhibition at 1 µM,CK1delta,-7%
same,inhibition at 1 µM,PASK,-5%
same,inhibition at 1 µM,MST3,3%
same,inhibition at 1 µM,NEK1,0%
same,inhibition at 1 µM,PAK3,1%
same,inhibition at 1 µM,GRK4,-13%
same,inhibition at 1 µM,SGK3,5%
same,inhibition at 1 µM,NEK11,-5%
same,inhibition at 1 µM,CK2alpha2,-14%
same,inhibition at 1 µM,INSR,8%
same,inhibition at 1 µM,PKCbeta2,7%
same,inhibition at 1 µM,CK1gamma3,-8%
same,inhibition at 1 µM,PIM1,3%
same,inhibition at 1 µM,CHK1,3%
same,inhibition at 1 µM,MYLK3,4%
same,inhibition at 1 µM,SNARK,0%
same,inhibition at 1 µM,VRK2,-16%
same,inhibition at 1 µM,SRMS,-2%
